Values quoted from earlier work, collected in patent US20090239878A1, “COMBINATIONS OF (A) AN ATP-COMPETITIVE INHIBITOR OF C-ABL KINASE ACTIVITY WITH (B) TWO OR MORE OTHER ANTINEOPLASTIC AGENTS” (priority 2002, published 2009).

Columns and labels:
[1] = test system: CEM/ara-C/I monoclonal clone; conditions: ara-C resistant cell line versus CEM/0
c-kit receptor = c-kit receptor (Homo sapiens, UniProt P10721); conditions: preclinical studies
[2] = test system: platelet-derived growth factor receptor; conditions: preclinical studies

Sequence of c-kit receptor (P10721 26-976): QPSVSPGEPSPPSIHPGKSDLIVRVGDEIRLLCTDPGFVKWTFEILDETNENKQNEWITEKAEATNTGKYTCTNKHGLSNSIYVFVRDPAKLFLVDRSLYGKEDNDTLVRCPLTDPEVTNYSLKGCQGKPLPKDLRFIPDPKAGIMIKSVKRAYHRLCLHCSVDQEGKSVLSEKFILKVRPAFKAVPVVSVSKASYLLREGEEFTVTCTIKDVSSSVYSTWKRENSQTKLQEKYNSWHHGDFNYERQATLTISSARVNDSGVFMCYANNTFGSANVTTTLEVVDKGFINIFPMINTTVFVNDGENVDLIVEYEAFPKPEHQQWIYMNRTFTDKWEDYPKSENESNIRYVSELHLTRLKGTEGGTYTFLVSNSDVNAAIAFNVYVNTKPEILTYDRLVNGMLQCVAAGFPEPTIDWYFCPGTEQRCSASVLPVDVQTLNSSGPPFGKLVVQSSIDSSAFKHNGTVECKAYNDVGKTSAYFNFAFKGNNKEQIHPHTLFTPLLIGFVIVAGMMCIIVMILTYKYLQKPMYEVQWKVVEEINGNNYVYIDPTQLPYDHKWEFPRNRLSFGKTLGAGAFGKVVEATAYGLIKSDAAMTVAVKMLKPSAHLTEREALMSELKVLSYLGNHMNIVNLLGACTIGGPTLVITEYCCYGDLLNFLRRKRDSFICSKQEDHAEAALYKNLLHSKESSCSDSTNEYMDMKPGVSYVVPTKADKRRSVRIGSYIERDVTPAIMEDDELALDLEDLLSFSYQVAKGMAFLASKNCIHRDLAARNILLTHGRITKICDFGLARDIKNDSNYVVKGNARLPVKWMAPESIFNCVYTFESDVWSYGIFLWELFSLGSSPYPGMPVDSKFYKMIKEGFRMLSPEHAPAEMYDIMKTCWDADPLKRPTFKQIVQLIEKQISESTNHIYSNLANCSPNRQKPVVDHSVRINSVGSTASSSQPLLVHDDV

Row | inhibition of kinase activity (c-kit receptor) | Compound | sensitivity to ara-C relative to wild type [1] | inhibition of kinase activity [2]
1 |  | Nc1ccn([C@@H]2O[C@H](CO)[C@@H](O)[C@@H]2O)c(=O)n1 [ara-C, cytosine arabinoside] | less than 1 % of the wild type CEM/0 cell line | 
2 | inhibits the kinase activities | N-{5-[4-(4-methyl-piperazino-methyl)-benzoylamido]-2-methylphenyl}-4-(3-pyridyl)-2-pyrimidine-amine [STI571] |  | inhibits the kinase activities
